The results in this text go back to ChEMBL document CHEMBL1145142, “Synthesis and activity of 8-substituted benzo[c]quinolizin-3-ones as dual inhibitors of human 5alpha-reductases 1 and 2” (Bioorg Med Chem Lett, 2005).

Holding throughout (type): cell-based
In assay [1] the target is T1, 3-oxo-5-alpha-steroid 4-dehydrogenase 2 (Homo sapiens, UniProt P31213).
T1 sequence (P31213 whole entry): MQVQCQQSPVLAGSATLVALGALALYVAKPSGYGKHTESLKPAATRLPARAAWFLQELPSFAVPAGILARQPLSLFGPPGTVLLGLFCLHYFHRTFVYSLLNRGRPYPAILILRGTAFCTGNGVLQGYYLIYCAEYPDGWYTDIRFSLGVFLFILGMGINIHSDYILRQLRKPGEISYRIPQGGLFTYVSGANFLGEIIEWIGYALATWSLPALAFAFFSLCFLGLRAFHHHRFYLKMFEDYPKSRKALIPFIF
The assay is described as follows: Inhibitory concentration against human steroid 5-alpha-reductase 2 receptor expressed in CHO 1829 cells; la= low activity.

Assay [2] deals with T2, 3-oxo-5-alpha-steroid 4-dehydrogenase 1 (Homo sapiens, UniProt P18405).
T2 sequence (P18405 whole entry): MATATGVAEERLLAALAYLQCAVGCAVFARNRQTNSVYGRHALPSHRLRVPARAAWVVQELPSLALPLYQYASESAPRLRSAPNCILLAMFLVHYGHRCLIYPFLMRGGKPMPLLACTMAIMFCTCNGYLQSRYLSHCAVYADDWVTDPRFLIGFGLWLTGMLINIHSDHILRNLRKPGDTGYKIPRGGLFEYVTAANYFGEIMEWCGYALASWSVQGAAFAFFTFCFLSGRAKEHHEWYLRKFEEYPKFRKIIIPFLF
The assay can be described thus: Inhibitory concentration against human steroid 5-alpha-reductase I receptor expressed in CHO 1827 cells.

The target of assay [3] is T1, 3-oxo-5-alpha-steroid 4-dehydrogenase 2. The assay is described as follows: Inhibitory concentration against human steroid 5-alpha-reductase 2 receptor expressed in CHO 1829 cells.
In assay [4] the target is T2, 3-oxo-5-alpha-steroid 4-dehydrogenase 1. The assay is described as follows: Inhibitory concentration against human steroid 5-alpha-reductase I receptor expressed in CHO 1827 cells; la= low activity.

As to `CC1=C2CCc3cc(C(=O)OCCCO)ccc3N2CCC1=O`, the IC50 (commonly the concentration that inhibits the measured activity by half) in assay [1] is “Low activity”; in assay [2] it was 6990 nM. Regarding `CC1=C2CCc3cc(C(=O)Oc4ccccc4F)ccc3N2CCC1=O`, the IC50 in assay [2] stood at 138 nM; in assay [3], 166 nM. As to `CCOC(=O)c1ccc2c(c1)CCC1=C(C)C(=O)CCN12`, in assay [3], half-maximal inhibition (IC50) required 4800 nM. This lies in the single-digit micromolar range.

For `CCCNC(=O)c1ccc(OC(=O)c2ccc3c(c2)CCC2=C(C)C(=O)CCN23)cc1`, the IC50 in assay [2] worked out at 268 nM; in assay [3], 665 nM. `CC(=O)Nc1ccc(OC(=O)c2ccc3c(c2)CCC2=C(C)C(=O)CCN23)cc1`: the IC50 in assay [2] is 707 nM; in assay [3], 255 nM.

With `CC1=C2CCc3cc(C(=O)N(C(C)C)C(C)C)ccc3N2CCC1=O`, the IC50 entry in assay [4] and in assay [1] was “Low activity” each time. As for `CC1=C2CCc3cc(C(=O)OCc4ccccc4)ccc3N2CCC1=O`, the IC50 in assay [3] is 9500 nM.

For `CCOc1ccc(OC(=O)c2ccc3c(c2)CCC2=C(C)C(=O)CCN23)cc1`, the IC50 in assay [2] was determined as 209 nM; in assay [3], 3300 nM. With `CC1=C2CCc3cc(C(=O)Oc4ccc(Cl)cc4)ccc3N2CCC1=O`, the IC50 result in assay [1] is “Low activity”; in assay [2], 1400 nM. For the compound `CCN(CC)C(=O)c1ccc2c(c1)CCC1=C(C)C(=O)CCN12`, the IC50 result in assay [4] and in assay [1] was “Low activity” each time.

Compound `CC1=C2CCc3cc(C(=O)Oc4ccccc4)ccc3N2CCC1=O` registered an IC50 in assay [3] of 295 nM.

Regarding `COc1ccc(OC(=O)c2ccc3c(c2)CCC2=C(C)C(=O)CCN23)cc1`, the values for the IC50 in assay [2] and in assay [3] were 116 nM and 1200 nM, respectively. In the case of `COC(=O)c1ccc2c(c1)CCC1=C(C)C(=O)CCN12`, half-maximal inhibition in assay [3] (IC50) was put at 2100 nM.

On to `CC1=C2CCc3cc(C(=O)Oc4ccccc4C(F)(F)F)ccc3N2CCC1=O`, for which the figures for the IC50 in assay [2] and in assay [3] were 42 nM and 368 nM, respectively. For the compound `CC1=C2CCc3cc(C(=O)Oc4ccc(N)cc4)ccc3N2CCC1=O`, the IC50 worked out at 272 nM in assay [2] and 801 nM in assay [3]. `CC1=C2CCc3cc(C(=O)Oc4ccc(F)cc4)ccc3N2CCC1=O`: the IC50 in assay [2] was determined as 93 nM; in assay [3], 119 nM. With `CC1=C2CCc3cc(C(=O)Oc4ccc(C(=O)NC(C)(C)C)cc4)ccc3N2CCC1=O`, the IC50 entry in assay [1] is “Low activity”; in assay [2] it was 225 nM. As for `CC1=C2CCc3cc(C(=O)OC(C)(C)C)ccc3N2CCC1=O`, the IC50 result in assay [1] is given as “Low activity”. As to `CC1=C2CCc3cc(C(=O)Oc4cccc(F)c4)ccc3N2CCC1=O`, the IC50 in assay [2] is 160 nM; in assay [3], 134 nM. Consider `CC1=C2CCc3cc(C(=O)Nc4ccc(C)cc4)ccc3N2CCC1=O`, for which the IC50 result in assay [1] was “Low activity”; in assay [2], 1000 nM. For the compound `CC1=C2CCc3cc(C(=O)Oc4ccc(C(C)(C)C)cc4)ccc3N2CCC1=O`, in assay [1], the IC50 result is “Low activity”. For the compound `CC1=C2CCc3cc(C(=O)Oc4ccc(C(N)=O)cc4)ccc3N2CCC1=O`, the results for the IC50 in assay [2] and in assay [3] were 361 nM and 308 nM, respectively. On to `COC(=O)c1cccc(OC(=O)c2ccc3c(c2)CCC2=C(C)C(=O)CCN23)c1`, for which the IC50 in assay [3] turned out to be 467 nM.

Take `CC1=C2CCc3cc(C(=O)OC(C)C)ccc3N2CCC1=O`: in assay [3], the IC50 is < 50 nM.

For the compound `CCN(CC)C(=O)c1ccc(OC(=O)c2ccc3c(c2)CCC2=C(C)C(=O)CCN23)cc1`, the IC50 in assay [2] came to 463 nM; in assay [3], 372 nM.

Regarding `CC1=C2CCc3cc(C(=O)Oc4ccc(C(F)(F)F)cc4)ccc3N2CCC1=O`, the IC50 in assay [2] was determined as 149 nM; in assay [3], 1200 nM.

For the compound `COC(=O)c1ccc(OC(=O)c2ccc3c(c2)CCC2=C(C)C(=O)CCN23)cc1`, the IC50 turned out to be 129 nM in assay [2] and 584 nM in assay [3]. The corresponding values for `CC1=C2CCc3cc(C(=O)Oc4ccc(C)cc4)ccc3N2CCC1=O` are 102 nM and 553 nM.

In the case of `CC1=C2CCc3cc(C(=O)Oc4cccc(C(F)(F)F)c4)ccc3N2CCC1=O`, the values for the IC50 in assay [2] and in assay [3] were 271 nM and 1000 nM, respectively. For `CC1=C2CCc3cc(C(=O)NC(C)(C)C)ccc3N2CCC1=O`, the concentration for half-maximal inhibition (IC50) entry in assay [4] and in assay [1] was “Low activity” throughout.
